Patent publication US20190092720A1, “FUNCTIONALIZED BENZAMIDE DERIVATIVES AS ANTIVIRAL AGENTS AGAINST HBV INFECTION” (BARUCH S. BLUMBERG INSTITUTE, priority 2012, published 2019)

How the values were obtained:
[1] = Cytotoxicity in AML12HBV10 cells (MTT assay); assay type: cell-based, murine; details: mouse, concentration that reduces viability by 50%, serial dilution 50 μM to 0.39 μM
Description: Determination of cytotoxicity of compounds of the disclosure in AML12HBV10 cells: To determine the cytotoxicity of the compounds, AML12HBV10 cells were seeded into 96-well plates at a density of 2×10^4 cells per well and cultured in DMEM/F12 media with 10% fetal bovine serum in the absence of tetracycline to allow pgRNA transcription and HBV DNA replication. One day after seeding, cells were left untreated or treated with a serial dilution of testing compounds, ranging from 50 μM to 0.39 μM, for 48 hours. The cell viability was measured by a MTT assay, following procedure provided by the manufacturer (Promega). The cytotoxicity of a compound was expressed as the concentration of compound that reduces the viability of the cells by 50% (CC50).

[2] = test system: capsid-associated HBV DNA; experiment: Capsid-associated HBV DNA and DNA replication intermediates in AML12HBV10 cells; assay type: cell-based, Hepatitis B virus (HBV); details: 2 days, FIG. 1 panels D and E
Description: (§1) FIG. 1. Antiviral mechanism of the compounds of the present invention. AML12HBV10 cells were left untreated (NT) or treated with the indicated concentrations of the compounds of the disclosure Compound 6 and Compound 19, respectively, for 2 days. Bay-4109 (3 µM) or AT-61 (25 µM) served as positive controls. (A) Intracellular viral RNA was determined by Northern blot hybridization. Ribosomal RNA served as a loading control. (B) The total amounts of nucleocapsids were determined by a particle gel assay. (C) Encapsidated pgRNA were extracted and measured by Northern blot. (D) Nucleocapsid-associated HBV DNA was quantified by alkaline-treatment of nucleocapsids on the membrane following the particle gel assay and hybridized with a HBV-specific riboprobe. (E) HBV DNA replication intermediates were extracted and determined by Southern blot hybridizations.
Procedures of viral capsids and nucleocapsid-associated DNA analysis: AML12HB10 cells were lysed by addition of 300 μl buffer containing 10 mM Tris-HCl (pH7.6), 100 mM NaCl, 1 mM EDTA and 0.1% NP-40 to each well of 12-well plate. Cell debries were removed by centrifugation at 5000 g for 10 minutes. Ten microliters of the clarified cell lysates were fractionated by electrophoresis through nondenaturing 1% agarose gels and transferred to a nitrocellulose filter by blotting with TNE buffer (10 mM Tris-HCl, pH7.6; 150 mM NaCl and 1 mM EDTA). HBV capsids were detected by probing the membrane with an antibody against HBV core protein (DAKO). […] To detect capsid associated HBV DNA, the membrane were treated with buffer containing 0.5N NaOH and 1.5 M NaCl for 5 minutes and followed by neutralization with buffer containing 1 M TRIS-HCl and 1.5M NaCl for 5 minutes. The viral DNA was detected by hybridization with a α-^32P-UTP (800 Ci/mmol, Perkin Elmer) labeled minus strand specific full-length HBV riboprobe (Xu et al.).
To analyze the HBV DNA replication intermediates, cells were lysed by adding into each well of the 12-well plates 0.5 ml of lysis buffer containing 10 mM Tris-HCl (pH 8.0), 1 mM EDTA, 1% NP40 and 2% sucrose and incubating at 37° C. for 10 minutes. Cell debris and nuclei were removed by centrifugation and the supernatant was mixed with 130 μl of 35% polyethylene glycol (PEG) 8000 containing 1.5 M NaCl. After 1 hour incubation in ice, viral nucleocapsids were pelleted by centrifugation at 6,000×g for 5 minutes at 4° C., followed by 1 hour digestion at 37° C. in 400 μl of digestion buffer containing 0.5 mg/ml pronase (Calbiochem), 0.5% SDS, 150 mM NaCl, 25 mM Tris-HCl (pH 8.0) and 10 mM EDTA. The digestion mixture was extracted twice with phenol and DNA was precipitated with ethanol, dissolved in TE buffer (10 mM Tris-HCl, pH 8.0; 0.1 mM EDTA). […]

HBV mRNA = experiment: Intracellular viral RNA by Northern blot in AML12HBV10 cells; assay type: cell-based, Hepatitis B virus (HBV); details: 2 days, FIG. 1 panel A
Description: as §1
Procedure for analysis of HBV mRNA: Upon the completion of treatment, total cellular RNA was extracted with TRIzol reagents (Invitrogen). Five micrograms of total RNA was resolved in 1.5% agarose gel containing 2.2 M formadelhyde and transferred onto Hybond-XL membrane in 20×SSC buffer. The amounts of HBV mRNA were determined by Northern blot hybridization with an alpha-^32P-UTP labeled riboprobe specific for plus strand of HBV genome.

SMILES: O=C(Nc1cccc(Cl)c1)c1scc2c1OCCO2 [Entry 6]
- CC50 at 48 h [1]: > 50 µM
- capsid-associated HBV DNA / DNA synthesis [2]: reduced encapsidated pgRNA and capsid-associated HBV DNA in a dose-dependent manner
- amount of viral mRNA (HBV mRNA): did not affect
